According to patent US10681909B2, “Herbicidal triazoles” (FMC Corporation, priority 2014, dated 2020):

Columns and labels:
galium = experiment: Test C preemergence; type: in vivo, Galium aparine; conditions: for Plant response rating (scale of 0 to 100 where 0 is no effect and 100 is complete control): Galium, preemergence; for Galium plant response rating (0 to 100): Preemergence, visual rating after 13 to 15 d
How it was run: (§1)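 Surfactant-containing, non-phytotoxic solvent formulations of each compound were applied either preemergence to seeds in a loam soil–sand blend or postemergence to plants 2 to 18 cm tall (1- to 4-leaf stage). Postemergence plants were grown in peat moss–vermiculite medium.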

corn = experiment: Test C preemergence; type: in vivo, Zea mays; conditions: for Plant response rating (scale of 0 to 100 where 0 is no effect and 100 is complete control): Corn, preemergence; for Corn plant response rating (0 to 100): Preemergence, visual rating after 13 to 15 d
How it was run: as §1

foxtail, giant = experiment: Test C preemergence; type: in vivo, Setaria faberii; conditions: for Plant response rating (scale of 0 to 100 where 0 is no effect and 100 is complete control): Foxtail, Giant, preemergence; for Foxtail, Giant plant response rating (0 to 100): Preemergence, visual rating after 13 to 15 d
How it was run: as §1

lambsquarters = experiment: Test C preemergence; type: in vivo, Chenopodium album; conditions: for Plant response rating (scale of 0 to 100 where 0 is no effect and 100 is complete control): Lambsquarters, preemergence; for Lambsquarters plant response rating (0 to 100): Preemergence, visual rating after 13 to 15 d
How it was run: as §1

ragweed = experiment: Test C preemergence; type: in vivo, Ambrosia elatior; conditions: for Ragweed plant response rating (0 to 100): Preemergence, visual rating after 13 to 15 d; for Plant response rating (scale of 0 to 100 where 0 is no effect and 100 is complete control): Ragweed, preemergence
How it was run: as §1

barnyardgrass = experiment: Test C preemergence; type: in vivo, Echinochloa crus-galli; conditions: for Plant response rating (scale of 0 to 100 where 0 is no effect and 100 is complete control): Barnyardgrass, preemergence; for Barnyardgrass plant response rating (0 to 100): Preemergence, visual rating after 13 to 15 d
How it was run: as §1

velvetleaf = experiment: Test C preemergence; type: in vivo, Abutilon theophrasti; conditions: for Velvetleaf plant response rating (0 to 100): Preemergence, visual rating after 13 to 15 d
How it was run: as §1

bromegrass, down = experiment: Test D preemergence; type: in vivo, Bromus tectorum; conditions: for Plant response rating: Bromegrass, Down: scale 0 to 100
How it was run: (§2)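 In this greenhouse herbicide screen, the preemergence spray went onto freshly planted silt loam, and the postemergence spray went onto seedlings 2 to 18 cm high. The compounds were carried in a surfactant-containing solvent. Plants were visually evaluated against controls after 14–21 d; a dash denotes no test result.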

barley, spring = experiment: Test D preemergence; type: in vivo, Hordeum vulgare; conditions: for Plant response rating: Barley, Spring: scale 0 to 100
How it was run: as §2

barley, winter = experiment: Test D preemergence; type: in vivo, Hordeum vulgare; conditions: for Plant response rating: Barley, Winter: scale 0 to 100
How it was run: as §2

wheat, spring = experiment: Test D preemergence; type: in vivo, Triticum aestivum; conditions: for Plant response rating: Wheat, Spring: scale 0 to 100
How it was run: as §2

wheat, winter = experiment: Test D preemergence; type: in vivo, Triticum aestivum; conditions: for Plant response rating: Wheat, Winter: scale 0 to 100
How it was run: as §2

oat, wild = experiment: Test D preemergence; type: in vivo, Avena fatua; conditions: for Plant response rating: Oat, Wild: scale 0 to 100
How it was run: as §2

windgrass = experiment: Test D preemergence; type: in vivo, Apera spica-venti; conditions: for Plant response rating: Windgrass: scale 0 to 100
How it was run: as §2

canarygrass = experiment: Test D postemergence; type: in vivo, Phalaris minor; conditions: scale 0 to 100
How it was run: as §2

chickweed = experiment: Test D postemergence; type: in vivo, Stellaria media; conditions: scale 0 to 100
How it was run: as §2

foxtail, green = experiment: Test D postemergence; type: in vivo, Setaria viridis; conditions: scale 0 to 100
How it was run: as §2

[1] = 16 g ai/ha, 0 is no effect, 100 is complete control

**Q.** `CCOc1nc(-c2ccccc2)nn1Cc1ccnc(C(F)(F)F)c1` [Compound 27] was tested. Which “Plant response rating (scale of 0 to 100 where 0 is no effect and 100 is complete control)” value (galium; 125 g ai/ha) did it give?
**A.** The value was 95.

**Q.** And the “Plant response rating (scale of 0 to 100 where 0 is no effect and 100 is complete control)” value (galium; 250 g ai/ha)?
**A.** Its value is 95.

**Q.** What about the “Galium plant response rating (0 to 100)” value (galium; 31 g ai/ha) of the same molecule?
**A.** Its value is 90.

**Q.** What about the “Galium plant response rating (0 to 100)” value (galium; 62 g ai/ha) of the same molecule?
**A.** Its value is 95.

**Q.** And the “Plant response rating (scale of 0 to 100 where 0 is no effect and 100 is complete control)” value (corn; 125 g ai/ha)?
**A.** Its value is 55.

**Q.** And the “Plant response rating (scale of 0 to 100 where 0 is no effect and 100 is complete control)” value (corn; 250 g ai/ha)?
**A.** The value was 60.

**Q.** What about the “Corn plant response rating (0 to 100)” value (corn; 31 g ai/ha) of the same molecule?
**A.** The value was 25.

**Q.** And the “Corn plant response rating (0 to 100)” value (corn; 62 g ai/ha)?
**A.** Its value is 40.

**Q.** What about the “Plant response rating (scale of 0 to 100 where 0 is no effect and 100 is complete control)” value (foxtail, giant; 125 g ai/ha) of the same molecule?
**A.** The value was 100.

**Q.** What about the “Plant response rating (scale of 0 to 100 where 0 is no effect and 100 is complete control)” value (foxtail, giant; 250 g ai/ha) of the same molecule?
**A.** The value was 100.

**Q.** And the “Foxtail, Giant plant response rating (0 to 100)” value (foxtail, giant; 31 g ai/ha)?
**A.** The value was 100.

**Q.** And the “Foxtail, Giant plant response rating (0 to 100)” value (foxtail, giant; 62 g ai/ha)?
**A.** Its value is 100.

**Q.** What about the “Plant response rating (scale of 0 to 100 where 0 is no effect and 100 is complete control)” value (lambsquarters; 125 g ai/ha) of the same molecule?
**A.** The value was 98.

**Q.** What about the “Plant response rating (scale of 0 to 100 where 0 is no effect and 100 is complete control)” value (lambsquarters; 250 g ai/ha) of the same molecule?
**A.** The value was 100.

**Q.** What about the “Lambsquarters plant response rating (0 to 100)” value (lambsquarters; 31 g ai/ha) of the same molecule?
**A.** The value was 90.

**Q.** And the “Lambsquarters plant response rating (0 to 100)” value (lambsquarters; 62 g ai/ha)?
**A.** Its value is 98.

**Q.** What about the “Ragweed plant response rating (0 to 100)” value (ragweed; 31 g ai/ha) of the same molecule?
**A.** The value was 50.

**Q.** And the “Ragweed plant response rating (0 to 100)” value (ragweed; 62 g ai/ha)?
**A.** The value was 50.

**Q.** And the “Plant response rating (scale of 0 to 100 where 0 is no effect and 100 is complete control)” value (ragweed; 125 g ai/ha)?
**A.** The value was 98.

**Q.** What about the “Plant response rating (scale of 0 to 100 where 0 is no effect and 100 is complete control)” value (ragweed; 250 g ai/ha) of the same molecule?
**A.** The value was 98.

**Q.** What about the “Plant response rating (scale of 0 to 100 where 0 is no effect and 100 is complete control)” value (barnyardgrass; 125 g ai/ha) of the same molecule?
**A.** Its value is 100.

**Q.** And the “Plant response rating (scale of 0 to 100 where 0 is no effect and 100 is complete control)” value (barnyardgrass; 250 g ai/ha)?
**A.** Its value is 100.

**Q.** And the “Barnyardgrass plant response rating (0 to 100)” value (barnyardgrass; 31 g ai/ha)?
**A.** The value was 70.

**Q.** What about the “Barnyardgrass plant response rating (0 to 100)” value (barnyardgrass; 62 g ai/ha) of the same molecule?
**A.** The value was 90.

**Q.** And the “Velvetleaf plant response rating (0 to 100)” value (velvetleaf; 31 g ai/ha)?
**A.** Its value is 10.

**Q.** What about the “Velvetleaf plant response rating (0 to 100)” value (velvetleaf; 62 g ai/ha) of the same molecule?
**A.** The value was 70.

**Q.** What about the “Plant response rating (scale of 0 to 100 where 0 is no effect and 100 is complete control)” value (velvetleaf; Velvetleaf, preemergence, 250 g ai/ha) of the same molecule?
**A.** The value was 100.

**Q.** And the “Plant response rating (0 to 100), Bromegrass, Down” value (bromegrass, down; [1])?
**A.** Its value is 0.

**Q.** What about the “Plant response rating: Bromegrass, Down” value (bromegrass, down; 31 g ai/ha) of the same molecule?
**A.** Its value is 20.

**Q.** What about the “Plant response rating: Bromegrass, Down” value (bromegrass, down; 62 g ai/ha) of the same molecule?
**A.** The value was 65.

**Q.** And the “Plant response rating: Bromegrass, Down” value (bromegrass, down; 125 g ai/ha)?
**A.** The value was 70.

**Q.** What about the “Plant response rating (0 to 100), Barley, Spring” value (barley, spring; [1]) of the same molecule?
**A.** Its value is 25.

**Q.** And the “Plant response rating: Barley, Spring” value (barley, spring; 31 g ai/ha)?
**A.** Its value is 25.

**Q.** And the “Plant response rating: Barley, Spring” value (barley, spring; 62 g ai/ha)?
**A.** Its value is 35.

**Q.** And the “Plant response rating: Barley, Spring” value (barley, spring; 125 g ai/ha)?
**A.** The value was 35.

**Q.** What about the “Plant response rating (0 to 100), Barley, Winter” value (barley, winter; [1]) of the same molecule?
**A.** The value was 15.

**Q.** What about the “Plant response rating: Barley, Winter” value (barley, winter; 31 g ai/ha) of the same molecule?
**A.** Its value is 25.

**Q.** What about the “Plant response rating: Barley, Winter” value (barley, winter; 62 g ai/ha) of the same molecule?
**A.** Its value is 30.

**Q.** What about the “Plant response rating: Barley, Winter” value (barley, winter; 125 g ai/ha) of the same molecule?
**A.** The value was 35.

**Q.** And the “Plant response rating (0 to 100), Wheat, Spring” value (wheat, spring; [1])?
**A.** The value was 15.

**Q.** What about the “Plant response rating: Wheat, Spring” value (wheat, spring; 62 g ai/ha) of the same molecule?
**A.** The value was 20.

**Q.** And the “Plant response rating: Wheat, Spring” value (wheat, spring; 125 g ai/ha)?
**A.** The value was 35.

**Q.** And the “Plant response rating (0 to 100), Wheat, Winter” value (wheat, winter; [1])?
**A.** Its value is 25.

**Q.** And the “Plant response rating: Wheat, Winter” value (wheat, winter; 62 g ai/ha)?
**A.** Its value is 30.

**Q.** And the “Plant response rating: Wheat, Winter” value (wheat, winter; 125 g ai/ha)?
**A.** Its value is 30.

**Q.** What about the “Plant response rating (0 to 100), Oat, Wild” value (oat, wild; [1]) of the same molecule?
**A.** The value was 25.

**Q.** And the “Plant response rating: Oat, Wild” value (oat, wild; 62 g ai/ha)?
**A.** The value was 45.

**Q.** What about the “Plant response rating: Oat, Wild” value (oat, wild; 125 g ai/ha) of the same molecule?
**A.** The value was 75.

**Q.** And the “Plant response rating (0 to 100), Windgrass” value (windgrass; [1])?
**A.** The value was 5.

**Q.** What about the “Plant response rating: Windgrass” value (windgrass; 62 g ai/ha) of the same molecule?
**A.** Its value is 80.

**Q.** And the “Plant response rating: Windgrass” value (windgrass; 125 g ai/ha)?
**A.** Its value is 95.

**Q.** What about the “Plant response rating: Canarygrass” value (canarygrass; 16 g ai/ha) of the same molecule?
**A.** The value was 50.

**Q.** And the “Plant response rating: Canarygrass” value (canarygrass; 31 g ai/ha)?
**A.** The value was 65.

**Q.** And the “Plant response rating: Canarygrass” value (canarygrass; 62 g ai/ha)?
**A.** Its value is 70.

**Q.** What about the “Plant response rating: Canarygrass” value (canarygrass; 125 g ai/ha) of the same molecule?
**A.** The value was 60.

**Q.** What about the “Plant response rating: Chickweed” value (chickweed; 16 g ai/ha) of the same molecule?
**A.** Its value is 85.

**Q.** What about the “Plant response rating: Chickweed” value (chickweed; 31 g ai/ha) of the same molecule?
**A.** The value was 95.

**Q.** And the “Plant response rating: Chickweed” value (chickweed; 62 g ai/ha)?
**A.** The value was 100.

**Q.** What about the “Plant response rating: Chickweed” value (chickweed; 125 g ai/ha) of the same molecule?
**A.** Its value is 100.

**Q.** And the “Plant response rating: Foxtail, Green” value (foxtail, green; 16 g ai/ha)?
**A.** Its value is 35.

**Q.** What about the “Plant response rating: Foxtail, Green” value (foxtail, green; 31 g ai/ha) of the same molecule?
**A.** Its value is 65.

**Q.** What about the “Plant response rating: Foxtail, Green” value (foxtail, green; 62 g ai/ha) of the same molecule?
**A.** Its value is 80.

**Q.** And the “Plant response rating: Foxtail, Green” value (foxtail, green; 125 g ai/ha)?
**A.** Its value is 95.
